Test results published in ChEMBL document CHEMBL5465560, “Selectivity Literature for EUbOPEN Chemogenomic Library” (2024).
Values belong to the compound of their own block, whether it stands above or below them.

Columns and labels:
[1] = molecular target: T1, Serine/threonine-protein kinase TBK1 (Homo sapiens) (UniProt Q9UHD2); experiment: Selectivity interaction (Ambit KINOMEscan and KiNATiv profiling in Jurkat cells) EUB0000090b TBK1; assay type: cell-based; settings: at 1 µM
T1 sequence (whole entry): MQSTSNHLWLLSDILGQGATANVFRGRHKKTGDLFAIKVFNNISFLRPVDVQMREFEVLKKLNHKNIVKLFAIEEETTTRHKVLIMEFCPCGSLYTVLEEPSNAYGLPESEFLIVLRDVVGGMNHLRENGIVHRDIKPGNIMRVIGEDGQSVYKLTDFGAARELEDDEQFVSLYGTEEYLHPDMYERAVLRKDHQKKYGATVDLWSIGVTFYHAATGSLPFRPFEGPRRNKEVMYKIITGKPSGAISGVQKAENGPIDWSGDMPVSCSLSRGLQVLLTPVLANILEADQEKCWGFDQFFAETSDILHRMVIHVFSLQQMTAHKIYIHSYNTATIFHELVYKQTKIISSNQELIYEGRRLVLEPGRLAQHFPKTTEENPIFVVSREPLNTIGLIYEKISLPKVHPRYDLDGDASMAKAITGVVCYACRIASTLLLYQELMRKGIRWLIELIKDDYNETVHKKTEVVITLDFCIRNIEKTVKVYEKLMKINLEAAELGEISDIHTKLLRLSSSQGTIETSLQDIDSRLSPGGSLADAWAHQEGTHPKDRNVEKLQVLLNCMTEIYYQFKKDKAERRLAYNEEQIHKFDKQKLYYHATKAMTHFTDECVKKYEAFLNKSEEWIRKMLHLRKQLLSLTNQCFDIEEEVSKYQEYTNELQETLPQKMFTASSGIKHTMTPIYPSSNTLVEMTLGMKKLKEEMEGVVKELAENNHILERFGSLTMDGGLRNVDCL

[2] = molecular target: T2, Muscle, skeletal receptor tyrosine-protein kinase (Homo sapiens) (UniProt O15146); experiment: Selectivity interaction (Kinase panel (Z-LYTE Assay)) EUB0001632a MUSK; settings: at 10 µM
T2 sequence (whole entry): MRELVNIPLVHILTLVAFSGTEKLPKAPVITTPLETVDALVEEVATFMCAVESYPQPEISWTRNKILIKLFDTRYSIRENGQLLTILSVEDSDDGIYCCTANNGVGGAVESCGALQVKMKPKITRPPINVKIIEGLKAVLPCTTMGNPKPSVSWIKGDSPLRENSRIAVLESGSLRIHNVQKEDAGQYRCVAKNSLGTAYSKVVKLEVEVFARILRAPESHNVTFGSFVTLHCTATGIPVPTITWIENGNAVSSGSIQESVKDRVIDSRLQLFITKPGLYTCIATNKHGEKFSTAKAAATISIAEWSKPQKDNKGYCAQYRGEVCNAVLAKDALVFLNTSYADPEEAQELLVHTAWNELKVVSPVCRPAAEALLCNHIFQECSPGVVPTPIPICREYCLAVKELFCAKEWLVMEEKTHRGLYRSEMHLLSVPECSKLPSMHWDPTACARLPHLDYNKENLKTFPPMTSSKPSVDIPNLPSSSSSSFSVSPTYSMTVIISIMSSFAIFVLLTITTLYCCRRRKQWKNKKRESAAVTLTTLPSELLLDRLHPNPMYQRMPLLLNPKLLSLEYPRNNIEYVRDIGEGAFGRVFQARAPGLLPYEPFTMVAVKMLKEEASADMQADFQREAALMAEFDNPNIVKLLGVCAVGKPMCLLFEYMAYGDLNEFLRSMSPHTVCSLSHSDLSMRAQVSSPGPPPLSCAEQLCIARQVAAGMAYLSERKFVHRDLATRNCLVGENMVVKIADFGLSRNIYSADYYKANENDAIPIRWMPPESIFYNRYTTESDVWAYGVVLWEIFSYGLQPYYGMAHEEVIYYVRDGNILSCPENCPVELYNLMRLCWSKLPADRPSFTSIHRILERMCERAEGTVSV

[3] = molecular target: T3, Serine/threonine-protein kinase LATS2 (Homo sapiens) (UniProt Q9NRM7); experiment: Selectivity interaction (KinomeScan (DiscoverX)) EUB0000092b LATS2; settings: at 10 µM
T3 sequence (whole entry): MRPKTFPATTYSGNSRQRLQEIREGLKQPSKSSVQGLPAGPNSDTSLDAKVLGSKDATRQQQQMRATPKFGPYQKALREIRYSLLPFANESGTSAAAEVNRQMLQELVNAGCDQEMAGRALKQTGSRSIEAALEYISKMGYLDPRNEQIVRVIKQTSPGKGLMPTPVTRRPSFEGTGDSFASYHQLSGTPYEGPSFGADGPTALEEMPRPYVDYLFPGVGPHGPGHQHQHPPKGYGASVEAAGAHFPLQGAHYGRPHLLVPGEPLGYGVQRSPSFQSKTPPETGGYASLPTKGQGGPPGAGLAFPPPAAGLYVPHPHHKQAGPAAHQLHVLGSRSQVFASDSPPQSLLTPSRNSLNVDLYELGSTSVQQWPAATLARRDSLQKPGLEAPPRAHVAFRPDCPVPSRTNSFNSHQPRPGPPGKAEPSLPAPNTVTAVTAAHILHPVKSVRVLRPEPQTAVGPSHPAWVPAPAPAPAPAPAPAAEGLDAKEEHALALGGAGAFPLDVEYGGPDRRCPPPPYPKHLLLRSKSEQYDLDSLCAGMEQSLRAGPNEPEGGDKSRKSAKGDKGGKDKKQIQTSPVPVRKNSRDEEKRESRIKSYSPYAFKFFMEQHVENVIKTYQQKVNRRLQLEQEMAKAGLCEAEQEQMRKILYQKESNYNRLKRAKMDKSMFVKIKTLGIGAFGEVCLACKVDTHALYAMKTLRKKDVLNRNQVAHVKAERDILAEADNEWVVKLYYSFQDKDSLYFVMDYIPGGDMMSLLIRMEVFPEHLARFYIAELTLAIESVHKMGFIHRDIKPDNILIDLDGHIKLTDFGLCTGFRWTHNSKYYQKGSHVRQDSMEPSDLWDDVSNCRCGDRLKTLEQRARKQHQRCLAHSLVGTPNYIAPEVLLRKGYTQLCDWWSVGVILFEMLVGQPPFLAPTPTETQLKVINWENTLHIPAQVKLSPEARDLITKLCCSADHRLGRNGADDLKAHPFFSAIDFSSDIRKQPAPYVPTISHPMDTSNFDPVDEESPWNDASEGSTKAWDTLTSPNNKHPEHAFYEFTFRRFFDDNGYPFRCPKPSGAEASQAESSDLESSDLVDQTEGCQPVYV

[4] = molecular target: Ribosomal protein S6 kinase alpha-4 (Homo sapiens) (UniProt O75676); experiment: Selectivity interaction (KinomeScan (DiscoverX)) EUB0000045b RPS6KA4; settings: at 1 µM
[5] = molecular target: Maternal embryonic leucine zipper kinase (Homo sapiens) (UniProt Q14680); experiment: Selectivity interaction (Kinase panel (DSF assay)) EUB0001559a MELK
Maternal embryonic leucine zipper kinase (Homo sapiens), sequence (Q14680 whole entry, looked up): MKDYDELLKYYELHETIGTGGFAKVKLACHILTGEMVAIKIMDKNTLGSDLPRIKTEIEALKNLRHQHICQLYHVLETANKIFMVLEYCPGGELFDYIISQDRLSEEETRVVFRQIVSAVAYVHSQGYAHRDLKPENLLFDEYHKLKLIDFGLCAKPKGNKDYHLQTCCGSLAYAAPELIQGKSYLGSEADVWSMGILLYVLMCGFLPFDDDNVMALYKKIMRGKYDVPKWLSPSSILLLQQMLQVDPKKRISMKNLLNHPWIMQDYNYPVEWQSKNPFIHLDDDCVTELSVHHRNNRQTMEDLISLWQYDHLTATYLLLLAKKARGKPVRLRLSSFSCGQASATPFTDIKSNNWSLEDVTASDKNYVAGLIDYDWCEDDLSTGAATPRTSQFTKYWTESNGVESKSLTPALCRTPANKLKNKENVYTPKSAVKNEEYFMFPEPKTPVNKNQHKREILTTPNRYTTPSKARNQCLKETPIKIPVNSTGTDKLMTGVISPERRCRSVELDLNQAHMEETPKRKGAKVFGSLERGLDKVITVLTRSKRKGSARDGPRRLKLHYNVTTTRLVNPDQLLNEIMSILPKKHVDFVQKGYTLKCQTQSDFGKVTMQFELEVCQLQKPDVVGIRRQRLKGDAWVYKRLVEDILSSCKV

Ribosomal protein S6 kinase alpha-4 (Homo sapiens), sequence (O75676 whole entry, looked up): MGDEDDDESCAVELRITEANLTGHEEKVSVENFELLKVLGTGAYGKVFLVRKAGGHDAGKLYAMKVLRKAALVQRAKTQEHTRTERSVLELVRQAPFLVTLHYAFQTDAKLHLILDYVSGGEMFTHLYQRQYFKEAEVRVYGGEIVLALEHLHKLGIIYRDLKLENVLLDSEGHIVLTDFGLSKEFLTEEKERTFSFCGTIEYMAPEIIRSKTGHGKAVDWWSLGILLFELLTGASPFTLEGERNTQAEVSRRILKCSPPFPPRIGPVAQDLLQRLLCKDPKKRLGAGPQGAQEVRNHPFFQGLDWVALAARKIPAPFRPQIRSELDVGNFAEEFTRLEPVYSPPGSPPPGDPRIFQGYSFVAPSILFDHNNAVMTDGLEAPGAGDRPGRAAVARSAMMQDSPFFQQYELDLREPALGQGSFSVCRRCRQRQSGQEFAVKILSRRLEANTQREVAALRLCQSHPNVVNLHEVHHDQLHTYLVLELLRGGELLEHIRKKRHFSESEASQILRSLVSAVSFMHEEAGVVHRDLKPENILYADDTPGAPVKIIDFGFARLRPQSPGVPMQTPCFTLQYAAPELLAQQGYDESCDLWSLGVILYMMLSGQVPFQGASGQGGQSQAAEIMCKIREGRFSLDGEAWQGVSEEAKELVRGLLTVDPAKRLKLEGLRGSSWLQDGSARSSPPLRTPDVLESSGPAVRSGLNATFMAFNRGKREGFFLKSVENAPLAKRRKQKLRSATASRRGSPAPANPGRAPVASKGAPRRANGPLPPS

Structure (SMILES): CN(C)C/C=C/C(=O)Nc1ccc(C(=O)N2CCCC(Nc3ncc(Cl)c(-c4c[nH]c5ccccc45)n3)C2)cc1 (stereo not given)
% of control [1]: 96%

% of control [2]: 12.7%
Structure (SMILES): Cn1cc(-n2cnc3c(NCc4nc5cc(Cl)c(Cl)cc5[nH]4)nc(N4CCOCC4)nc32)cn1

Structure (SMILES): CCC(=O)N1CCN(c2ccc(-n3c(=O)ccc4cnc5ccc(-c6cnc7ccccc7c6)cc5c43)cc2C(F)(F)F)CC1
% of control [3]: 100%

Structure (SMILES): C=CC(=O)Nc1cc(-n2c(=O)ccc3cnc4ccc(-c5ccc(NS(C)(=O)=O)cc5)cc4c32)ccc1C
% of control [4]: 67%

dTM [5]: -0.3 K
Structure (SMILES): CN(C(=O)c1cnn2cccnc12)c1cc2c(cc1N1CCOCC1)C(=O)N(C[C@@H](F)C(C)(C)O)C2
